Experimental data reported in PubChem BioAssay AID256 (DTP/NCI, 2004).
Where “and” joins values, the source holds several entries; their conditions need not be identical. Identical values can stand only once. Toxic doses and inconclusive results are not listed. The calls were made as follows: active = survival T/C of 150% or more; inactive = T/C below 125% in these data.

System: CD2F1 mice, L1210 leukemia ip, survival T/C
Test: NCI In Vivo Anticancer Drug Screen. Data for tumor model L1210 Leukemia (intraperitoneal) in CD2F1 (CDF1) mice
Settings: higher = longer survival
Outline: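 In this screen, transplantable tumors were grown in mice given either the compound or its vehicle. Results were expressed as the treated measurement relative to the control measurement.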

[1] = endpoint: mean survival time, dose: 100.0 mg/kg/injection, schedule: Q01DX009 (ip), vehicle: saline with Tween-80
[2] = endpoint: mean survival time, dose: 200.0 mg/kg/injection, schedule: Q01DX009 (ip), vehicle: saline with Tween-80
[3] = endpoint: mean survival time, dose: 400.0 mg/kg/injection, schedule: Q01DX009 (ip), vehicle: saline with Tween-80
[4] = endpoint: mean survival time, dose: 100.0 mg/kg/injection, schedule: Q04DX003 (ip), vehicle: saline with Tween-80
[5] = endpoint: mean survival time, dose: 25.0 mg/kg/injection, schedule: Q01DX009 (ip), vehicle: saline
[6] = endpoint: mean survival time, dose: 50.0 mg/kg/injection, schedule: Q01DX009 (ip), vehicle: saline
[7] = endpoint: mean survival time, dose: 100.0 mg/kg/injection, schedule: Q01DX009 (ip), vehicle: saline
[8] = endpoint: mean survival time, dose: 200.0 mg/kg/injection, schedule: Q01DX009 (ip), vehicle: saline
[9] = endpoint: mean survival time, dose: 400.0 mg/kg/injection, schedule: Q01DX009 (ip), vehicle: saline
[10] = endpoint: mean survival time, dose: 25.0 mg/kg/injection, schedule: Q04DX003 (ip), vehicle: saline with Tween-80
[11] = endpoint: mean survival time, dose: 50.0 mg/kg/injection, schedule: Q04DX003 (ip), vehicle: saline with Tween-80

Measured: T/C

O=S1(=O)C=CCCC=C1
inactive: endpoint: mean survival time, dose: 50.0 mg/kg/injection, schedule: Q01DX009 (ip), vehicle: Klucel (hydroxypropylcellulose) (HPC) 93 % of control | endpoint: mean survival time, dose: 100.0 mg/kg/injection, schedule: Q01DX009 (ip), vehicle: Klucel (hydroxypropylcellulose) (HPC) 93 % of control

N#CSCc1ccccc1
inactive: endpoint: mean survival time, dose: 12.5 mg/kg/injection, schedule: Q01DX009 (ip), vehicle: saline with Tween-80 100 % of control

O=C(C[n+]1ccccc1)N/N=C/c1c(O)ccc2ccccc12
inactive: endpoint: mean survival time, dose: 25.0 mg/kg/injection, schedule: Q01DX009 (ip), vehicle: saline with Tween-80 100 % of control | endpoint: mean survival time, dose: 50.0 mg/kg/injection, schedule: Q01DX009 (ip), vehicle: saline with Tween-80 99 % of control | [1] 99 % of control

CC(=O)OC12C=C(C)C(C3C(=O)OC(=O)C31)C(C)(C)C2 (configuration not stated)
inactive: endpoint: mean survival time, dose: 100.0 mg/kg/injection, schedule: Q01DX001 (ip), vehicle: saline 103 % of control | endpoint: mean survival time, dose: 200.0 mg/kg/injection, schedule: Q01DX001 (ip), vehicle: saline 101 % of control

O=C1NC2(CCCC2)C(=O)N2CCCC12 (configuration not stated)
inactive: endpoint: mean survival time, dose: 50.0 mg/kg/injection, schedule: Q04DX003 (ip), vehicle: Klucel (hydroxypropylcellulose) (HPC) 93 % of control | endpoint: mean survival time, dose: 100.0 mg/kg/injection, schedule: Q04DX003 (ip), vehicle: Klucel (hydroxypropylcellulose) (HPC) 93 % of control | endpoint: mean survival time, dose: 200.0 mg/kg/injection, schedule: Q04DX003 (ip), vehicle: Klucel (hydroxypropylcellulose) (HPC) 97 % of control

BrC(Br)(Br)c1ccc2ccccc2n1
inactive: [1] 96 % of control | [2] 94 % of control | [3] 102 % of control

O=[N+]([O-])O.[Zn+2].c1ccncc1
inactive: endpoint: mean survival time, dose: 75.0 mg/kg/injection, schedule: Q01DX001 (ip), vehicle: saline 108 % of control

Nc1nc2c(ncn2C2OC(CO)C(O)C2O)c(=O)[n]1[Hg][c]1ccccc1 (configuration not stated)
inactive: endpoint: median survival time, dose: 0.79 mg/kg/injection, schedule: Q01DX005 (ip), vehicle: saline 103 % of control | endpoint: median survival time, dose: 1.56 mg/kg/injection, schedule: Q01DX005 (ip), vehicle: saline 100 % of control | endpoint: median survival time, dose: 3.12 mg/kg/injection, schedule: Q01DX005 (ip), vehicle: saline 100 % of control | endpoint: median survival time, dose: 6.25 mg/kg/injection, schedule: Q01DX005 (ip), vehicle: saline 100 % of control | endpoint: median survival time, dose: 12.5 mg/kg/injection, schedule: Q01DX005 (ip), vehicle: saline 108 % of control

c1ccc(-c2nnc(-c3ccccc3)nn2)cc1
inactive: [1] 98 % of control | [4] 98 % of control | [2] 98 % of control | endpoint: mean survival time, dose: 200.0 mg/kg/injection, schedule: Q04DX003 (ip), vehicle: saline with Tween-80 101 % of control | [3] 95 % of control | endpoint: mean survival time, dose: 400.0 mg/kg/injection, schedule: Q04DX003 (ip), vehicle: saline with Tween-80 96 % of control

CONc1ccn(C2OC(CO)C(O)C2O)c(=O)n1 (configuration not stated)
inactive: endpoint: mean survival time, dose: 12.5 mg/kg/injection, schedule: Q01DX009 (ip), vehicle: saline 108 % of control | [5] 108 % of control | [6] 117 % of control | [7] 121 % of control | [8] 120 % of control | [9] 97 % of control | endpoint: median survival time, dose: 12.5 mg/kg/injection, schedule: Q01DX009 (ip), vehicle: saline 101 % of control | endpoint: median survival time, dose: 25.0 mg/kg/injection, schedule: Q01DX009 (ip), vehicle: saline 108 % of control | endpoint: median survival time, dose: 50.0 mg/kg/injection, schedule: Q01DX009 (ip), vehicle: saline 108 % of control | endpoint: median survival time, dose: 100.0 mg/kg/injection, schedule: Q01DX009 (ip), vehicle: saline 111 % of control | endpoint: median survival time, dose: 200.0 mg/kg/injection, schedule: Q01DX009 (ip), vehicle: saline 112 % of control | endpoint: median survival time, dose: 400.0 mg/kg/injection, schedule: Q01DX009 (ip), vehicle: saline 120 % of control

COc1ccc(C(=O)/C=N/O)cc1
inactive: [10] 100 % of control | [11] 100 % of control | [4] 95 % of control and 98 % of control

O=C(O)C(O)C(=O)O.[NH-]C1CCCCC1[NH-].[Pt+2]
inactive: endpoint: mean survival time, dose: 1.18 mg/kg/injection, schedule: Q04DX003 (ip), vehicle: saline with Tween-80 109 % of control | endpoint: mean survival time, dose: 2.35 mg/kg/injection, schedule: Q04DX003 (ip), vehicle: saline with Tween-80 120 % of control | endpoint: mean survival time, dose: 4.7 mg/kg/injection, schedule: Q04DX003 (ip), vehicle: saline with Tween-80 124 % of control

CN(C)CC(C)(C)C(=O)c1ccc(F)cc1
inactive: endpoint: mean survival time, dose: 12.5 mg/kg/injection, schedule: Q04DX002 (ip), vehicle: saline 104 % of control | endpoint: mean survival time, dose: 25.0 mg/kg/injection, schedule: Q04DX002 (ip), vehicle: saline 101 % of control | endpoint: mean survival time, dose: 50.0 mg/kg/injection, schedule: Q04DX002 (ip), vehicle: saline 96 % of control

CN(C)CC1CCCCC1OC(=O)c1ccccc1 (configuration not stated)
inactive: [10] 93 % of control | [11] 97 % of control | [4] 97 % of control | endpoint: mean survival time, dose: 100.0 mg/kg/injection, schedule: Q04DX003 (ip), vehicle: water 96 % of control

CC12CCC(OC3CCCCO3)CC1=CCC1C2CCC2(C)C1CCC21CCNP(=O)(N(CCCl)CCCl)O1 (configuration not stated)
inactive: endpoint: mean survival time, dose: 12.5 mg/kg/injection, schedule: Q01DX005 (ip), vehicle: other 100 % of control | endpoint: mean survival time, dose: 25.0 mg/kg/injection, schedule: Q01DX005 (ip), vehicle: other 91 % of control | endpoint: mean survival time, dose: 50.0 mg/kg/injection, schedule: Q01DX005 (ip), vehicle: other 95 % of control | endpoint: mean survival time, dose: 100.0 mg/kg/injection, schedule: Q01DX005 (ip), vehicle: other 95 % of control | endpoint: mean survival time, dose: 125.0 mg/kg/injection, schedule: Q01DX001 (ip), vehicle: Klucel (hydroxypropylcellulose) (HPC) 95 % of control | endpoint: mean survival time, dose: 250.0 mg/kg/injection, schedule: Q01DX001 (ip), vehicle: Klucel (hydroxypropylcellulose) (HPC) 96 % of control | endpoint: mean survival time, dose: 500.0 mg/kg/injection, schedule: Q01DX001 (ip), vehicle: Klucel (hydroxypropylcellulose) (HPC) 101 % of control | endpoint: mean survival time, dose: 1000.0 mg/kg/injection, schedule: Q01DX001 (ip), vehicle: Klucel (hydroxypropylcellulose) (HPC) 98 % of control

Cc1ccc([P+](Cc2ccccc2)(c2ccccc2)c2ccccc2)cc1
inactive: endpoint: mean survival time, dose: 5.0 mg/kg/injection, schedule: Q01DX001 (ip), vehicle: saline 108 % of control | endpoint: mean survival time, dose: 10.0 mg/kg/injection, schedule: Q01DX001 (ip), vehicle: saline 105 % of control | endpoint: mean survival time, dose: 20.0 mg/kg/injection, schedule: Q01DX001 (ip), vehicle: saline 96 % of control | endpoint: mean survival time, dose: 40.0 mg/kg/injection, schedule: Q01DX001 (ip), vehicle: saline 109 % of control

CC1=C(/C=C/C(C)=C/C=C/C(C)=C/C(=O)Nc2ccc(O)cc2)C(C)(C)CCC1
inactive: endpoint: median survival time, dose: 12.5 mg/kg/injection, schedule: Q01DX005 (ip), vehicle: saline with Tween-80 98 % of control | endpoint: median survival time, dose: 25.0 mg/kg/injection, schedule: Q01DX005 (ip), vehicle: saline with Tween-80 101 % of control | endpoint: median survival time, dose: 50.0 mg/kg/injection, schedule: Q01DX005 (ip), vehicle: saline with Tween-80 98 % of control | endpoint: median survival time, dose: 100.0 mg/kg/injection, schedule: Q01DX005 (ip), vehicle: saline with Tween-80 92 % of control | endpoint: median survival time, dose: 200.0 mg/kg/injection, schedule: Q01DX005 (ip), vehicle: saline with Tween-80 96 % of control

O=C(O)c1c2c(nc3c(Cl)cccc13)-c1ccccc1C2
inactive: [1] 102 % of control | [2] 107 % of control

CN(N=O)P(=O)(Nc1ccccc1)Nc1ccccc1
inactive: endpoint: mean survival time, dose: 25.0 mg/kg/injection, schedule: Q04DX003 (ip), vehicle: other 101 % of control | endpoint: mean survival time, dose: 50.0 mg/kg/injection, schedule: Q04DX003 (ip), vehicle: other 98 % of control | endpoint: mean survival time, dose: 100.0 mg/kg/injection, schedule: Q04DX003 (ip), vehicle: other 103 % of control

CCCN1CSC(=S)N(Cc2ccccc2)C1
inactive: [1] 92 % of control | [2] 97 % of control | [3] 92 % of control

CC(N)C(=O)NC(C(=O)O)C(C)O (configuration not stated)
inactive: [5] 102 % of control | [6] 103 % of control | [7] 105 % of control | [8] 98 % of control | [9] 98 % of control

ClC1=CCCCC1
inactive: endpoint: mean survival time, dose: 100.0 mg/kg/injection, schedule: Q04DX003 (ip), vehicle: acetone 102 % of control
